Legend:
sheep APJ [1] = assay: Competitive radioligand binding with [125I]-(pyr1)Apelin-13 on HEK293 cells expressing sheep APJ; parameters: species or system sheep (Ovis aries); conditions: HEK293 cells with HA-tagged sheep APJ, 0.2 nM [125I]-(pyr1)APLN-13, 1 h at room temperature, n = 3; human APLN-13 compared with human ELA
Description: The sequence of the apelin receptor was synthetized with gBlocks Gene Fragments (Integrated DNA Technologies, USA) and subcloned into […]1 (a modified vector in which we replaced the YFP sequence with that for two HA tags) with an NEBuilder HiFi DNA Assembly Cloning Kit (New England Biolabs, MA, USA). The Ovis aries APJ sequence was obtained from the RefSeq database (XM_027979777.1). […] Thermo Scientific Pierce, Canada)[49]. […] The γ emission was quantified using a γ-counter 1470 Wizard from PerkinElmer (Waltham) (80% efficiency). […] All binding data were calculated and plotted using GraphPad Prism 8 (La Jolla, CA) and represent the mean ± SEM of three replicates.

sheep APJ [2] = assay: BRET assay for Gαi1 activation in HEK293 cells expressing sheep APJ; assay type: cell-based, sheep (Ovis aries); conditions: BRET2, HEK293 cells with sheep APJ, 5 min stimulation at 37 °C, n = 3
Experimental: (§1) BRET experiments were performed as previously described. In brief, HEK293 cells were transfected with plasmids encoding sheep APJ, Gαi1-RlucII ([…]β1 (from cDNA.org) (for the BRET-based Gαi1 activation assay) or encoding sheep APJ-GFP10 and RlucII-β-arrestin2 (for the BRET-based β-arrestin-2 recruitment assay)[50]. To perform the BRET assays, 50,000 cells/well were transferred into white 96-well plates (BD Bioscience, Mississauga, Canada) and incubated at 37 °C overnight. […] After stimulation, 5 μM coelenterazine 400A was added to each well, and the plate was read on a GeniosPro plate reader using the BRET2 filter set (Tecan, Austria). The BRET2 ratio was calculated as […].

sheep APJ [3] = assay: BRET assay for β-arrestin-2 recruitment in HEK293 cells expressing sheep APJ; assay type: cell-based, sheep (Ovis aries); conditions: BRET2, HEK293 cells with sheep APJ, 30 min stimulation at 37 °C, n = 3
Experimental: as §1

healthy sheep = assay: Hemodynamic and diuretic dose-response to infusion in healthy sheep; assay type: in vivo
Experimental: This study was approved by our institutional ethics review board (CFPA: Comité Facultaire de Protection des Animaux, #023-18BR). Thirty-six male Canadian Arcott sheep (33 ± 3 kg, 3 to 4 months old;) were included in this study according to the Animal Research: Reporting of In Vivo Experiments (ARRIVE) guidelines and received care in compliance with the Canadian Council of Animal Care and National Institutes of Health (NIH) guidelines. Animals were housed for at least 48 h before the experiment in dedicated accommodations and bedding.
(§2) The day before surgery, autologous stool was retrieved for treatment of the sheep selected for fecal peritonitis induction and mixed overnight in 0.9% normal saline (NS) and 5% D-glucose at 37 °C. The animals were fasted overnight. On the morning of the day of surgery, sheep received premedication to ease animal handling and intubation (i.e., intramuscular injections of 0.1 mg/kg atropine and 10 mg/kg ketamine) before routing to the operating room for insertion of an external jugular vein catheter and administration of a 500 mL bolus of Ringer’s lactate (RL). […]
(§3) Baseline hemodynamic parameters and vital sign measurements (HR: heart rate, MAP: mean arterial pressure, SVR: systemic vascular resistance, CVP: central venous pressure, PAOP: pulmonary artery occlusion pressure and wedge pressure), dP/dt max and min, LV end-systolic pressure (LVESP), CO, stroke volume (SV), GEDV, and extravascular lung water (EVLW) were then recorded. Blood temperature, baseline central venous O2 saturation (ScvO2), and arterial blood gas (RapidLab® 348, Siemens Healthcare Diagnostics, Montreal, Qc, Canada) and lactate levels (Lactate Plus, Nova Biomedical, Waltham, MA, USA) were also monitored. A slightly modified sheep SOFA[46] score was calculated after reached shock criteria defining the “shock” time point and before euthanasia named the “final” time points, defined as a MAP below 65 mmHg for level 1 of the cardiovascular system assessment and assuming a constant level 3 of the central nervous system (Glasgow score 6–9) at “shock”. […]

[4] = tested on: sheep with fecal peritonitis-induced septic shock; assay: Hemodynamic and renal dose-response to infusion in sheep with fecal peritonitis-induced septic shock; assay type: in vivo
Experimental: as §2, with “(RL). Sheep were then continuously infused with RL (3 mL/kg/h) and 5% D-glucose (2 mL/kg/h). Tracheal intubation (7–8 Fr) was performed in a caddy under isoflurane (1–2%) mask inhalation and by an anterior approach. Sheep were then placed in the supine position on heating pads before ventilator connection (Aestiva 15, Datex-Ohmeda, USA).” for “(RL).”
as §3
After 2 g/kg autologous stool slurry was injected into both intra-peritoneal (i.p.) tubes, RL and 5% D-glucose infusions were stopped, and all the above parameters were monitored every 30 min. […]

[5] = Apelinergic stability in sheep plasma; assay type: in vitro ADME; conditions: sheep plasma of baseline and shock time points (n = 18); 27 μL plasma + 6 μL 1 mM aqueous peptide, 37 °C, 0 to 6 h, UPLC-MS
Experimental: (§4) Additional extraction on […] column (Phenomenex, Torrance, CA, USA) with overnight freeze-drying was mandatory for samples used for ELA measurements. […] LS-F25717; […] ELA was quantified using a commercially available ELISA kit (Peninsula Laboratories International; S-1508; CA, USA) with a measurement range of 0-100 ng/mL. […] Proteolytic degradation was stopped by adding 140 μL of 50% acetonitrile, 50% ethanol, and 0.25 mM N, N-dimethylbenzamide at 0, 0.5, 1, 2, 4, or 6 h. […] Next, the reaction mixture was diluted with 80 μL of water and analyzed overnight with an Acquity class H ultra-performance liquid chromatography-mass spectrometry (UPLC-MS) system from Waters (Milford, MA, USA) (column: Acquity UPLC CSH C18, 2.1 mm × 50 mm, packed with 1.7 μm particles). Results were expressed as a percentage of the initial zero-time spike area.

[6] = Apelinergic stability in human plasma; assay type: in vitro ADME; conditions: 27 μL plasma + 6 μL 1 mM aqueous peptide, 37 °C, 0, 0.5, 1, 2, 4, 6 h, UPLC-MS, mean ± SEM
Experimental: as §4

With CSCC[C@H](NC(=O)[C@@H](NC(=O)[C@H](CC(C)C)NC(=O)[C@H](CC(N)=O)NC(=O)[C@@H](NC(=O)[C@@H]1CCCN1C(=O)[C@H](CCCNC(=N)N)NC(=O)[C@@H](N)CCC(N)=O)C(C)C)[C@@H](C)O)C(=O)N[C@@H](CCCNC(=N)N)C(=O)N[C@@H](CCCNC(=N)N)C(=O)N[C@@H](CCCCN)C(=O)N[C@@H](CC(C)C)C(=O)N[C@@H](CCCNC(=N)N)C(=O)N[C@@H](CCCCN)C(=O)N[C@@H](Cc1c[nH]cn1)C(=O)N[C@@H](CC(N)=O)C(=O)N[C@H]1CSSC[C@@H](C(=O)N[C@@H](CCSC)C(=O)N2CCC[C@H]2C(=O)N[C@@H](CC(C)C)C(=O)N[C@@H](Cc2c[nH]cn2)C(=O)N[C@@H](CO)C(=O)N[C@@H](CCCNC(=N)N)C(=O)N[C@H](C(=O)N2CCC[C@H]2C(=O)N[C@@H](Cc2ccccc2)C(=O)N2CCC[C@H]2C(=O)O)C(C)C)NC(=O)[C@H](CCCNC(=N)N)NC(=O)[C@H](CCCNC(=N)N)NC(=O)[C@H](CCC(N)=O)NC(=O)[C@H](CC(C)C)NC1=O [ELA, Elabela] the “affinity for sheep APJ” value (sheep APJ [1]) was “similar”, the “potency in Gαi1 activation, compared with APLN-13” value (sheep APJ [2]) was “lower potency” and the “potency and efficacy in β-arrestin-2 recruitment, compared with APLN-13” value (sheep APJ [3]) was “lower potency and efficacy”. For the same molecule, the “mean arterial pressure (MAP)” value (healthy sheep; 6.25 nMol/kg/h, mean ± SEM, n = 6/group) was 65.4 ± 8.1 mmHg, the systemic vascular resistance (healthy sheep; incremental doses 0.025 to 12.5 nmol/kg/h) was “not significantly impacted” and the “heart rate (HR) and global end-diastolic volume (GEDV)” value (healthy sheep; incremental doses 0.025 to 12.5 nmol/kg/h, PiCCO) was “unchanged”. For the same molecule, the “cardiac output (CO)” value ([4]; septic sheep after fluid resuscitation, 2.5 nMol/kg/h, mean ± SEM, n = 6/group) was 2.71 ± 0.41 L/min, the “endpoint circulating levels of lactate, cortisol and Tn T” value ([4]; septic sheep, at the end of the last d5 infusion, n = 6/group) was “neither APLN-13 nor ELA infusion impacted” and the “FP-induced decreases of monitored hemodynamic parameters” value ([4]; septic sheep, incremental doses 0.025 to 12.5 nmol/kg/h) was “failed to alleviate these decreases”. The “plasma stability (residual percentage of non-degraded peptide)” value [5] was “unaffected”, the half-life ([6]; plasma of patients with sepsis/septic shock (n = 22)) was 69 ± 12 min and the half-life ([6]; plasma, plasma of healthy volunteers (n = 10)) was 258 ± 45 min.

— paper PMC8611018, “Apelin-13 in septic shock: effective in supporting hemodynamics in sheep but compromised by enzymatic breakdown in patients” (Scientific Reports, 2021)
